“Also recorded” adds a separate entry of the source.
Columns and labels:
[1] = test system: CYP3A4; conditions: cited from earlier work
[2] = test system: human liver microsomes; experiment: Metabolism of 20; type: in vitro ADME; conditions: for proportion of 20,25(OH)2D3:20,24R(OH)2D3:20,24S(OH)2D3 at the end of the time course: products of 20(OH)D3, human liver microsomes (Fig. S5A)
[3] = biological target: recombinant human CYP3A4 (Homo sapiens, UniProt P08684); experiment: Metabolism by CYP3A4 supersomes; type: in vitro ADME; conditions: for Km / kcat: initial rates of formation of all products, substrate in 0.45% HP-β-CD, 60 nM CYP3A4, mean ± standard error of the curve fit; for proportion of 20,25(OH)2D3:20,24R(OH)2D3:20,24S(OH)2D3: products of 20(OH)D3, CYP3A4 (Fig. S3A)
[4] = high doses, up to 60 μg/kg in rodents; cited from earlier work
[5] = test system: SKMEL-188 melanoma cells; conditions: cited from earlier work
[6] = test system: human liver microsomes; experiment: Incubation of human liver microsomes with CYP3A4 inhibitors; conditions: for decrease of total products: 50 μM 20(OH)D3, 30 min
[7] = test system: human liver microsomes
[8] = total product formation from 20(OH)D3, microsomes 1.5 mg/mL

Chain of recombinant human CYP3A4 (P08684 2-503 limits assumed): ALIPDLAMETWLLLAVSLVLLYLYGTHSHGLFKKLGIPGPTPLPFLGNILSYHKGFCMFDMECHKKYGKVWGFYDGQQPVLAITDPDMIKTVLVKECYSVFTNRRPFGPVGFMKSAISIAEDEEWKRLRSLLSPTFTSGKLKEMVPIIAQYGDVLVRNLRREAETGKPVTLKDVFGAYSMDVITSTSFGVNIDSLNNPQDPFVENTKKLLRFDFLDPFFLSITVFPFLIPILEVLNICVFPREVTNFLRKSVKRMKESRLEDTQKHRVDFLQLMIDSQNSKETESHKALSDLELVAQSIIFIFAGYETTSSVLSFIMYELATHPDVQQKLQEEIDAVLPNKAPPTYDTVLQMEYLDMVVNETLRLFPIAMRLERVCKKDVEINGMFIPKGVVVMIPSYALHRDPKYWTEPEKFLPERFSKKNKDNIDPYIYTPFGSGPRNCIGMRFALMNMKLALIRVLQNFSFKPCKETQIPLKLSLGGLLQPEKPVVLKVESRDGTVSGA

For C=C1/C(=C\C=C2/CCC[C@]3(C)[C@@H]([C@H](C)CCCC(C)(C)O)CC[C@@H]23)C[C@@H](O)C[C@@H]1O [1,25(OH)2D3, 1,25-dihydroxyvitamin D3], which “efficiency of metabolism by CYP3A4” value [1] is on record?
The value was 0.70 min^−1μM^−1.

With C=C1CC[C@H](O)C/C1=C/C=C1\CCC[C@@]2(C)[C@H]1CC[C@@H]2[C@@](C)(O)CCCC(C)C [20(OH)D3, 20S-Hydroxyvitamin D3] as the compound, how does the Km [2, 8] read?
The Km was 165 ± 56 µM.

And the Vmax [2, 8]?
Its Vmax is 292.6 ± 60.3 min⁻¹.

And the “more products with substrate in HP-β-CD than when added from acetonitrile” value ([3]; CYP3A4 supersomes, not shown)?
Its value is 25 fold.

What about the “metabolised faster than 25(OH)D3 (times)” value ([3]; formation of total products, 50 μM substrate (Fig. S3B)) of the same compound?
The value was “approximately 30 times”.

What about the Km [3] of the same compound?
Its Km is 32.6 ± 2.8 µM.

What about the kcat [3] of the same compound?
Its kcat is 0.295 ± 0.0083 s⁻¹.

What about the “substrate consumed by the end of the incubation” value ([3]; time course of 20(OH)D3 metabolism by CYP3A4 (Fig. S3A)) of the same compound?
Its value is 18%.

What about the hypercalcaemia [4] of the same compound?
The hypercalcaemia was “does not induce hypercalcaemia”.

For C=C1CC[C@H](O)C/C1=C/C=C1\CCC[C@@]2(C)[C@H]1CC[C@@H]2[C@@](C)(O)CC[C@@H](O)C(C)C [20,24R(OH)2D3, 20,24R-dihydroxyvitamin D3], which “inhibition of colony formation compared with 20(OH)D3” value [5] is on record?
Its value is “more potent; also recorded: more strongly than the parent 20(OH)D3”.

And the “proportion of 20,25(OH)2D3:20,24R(OH)2D3:20,24S(OH)2D3 at the end of the time course” value (from here on “proportion … of the time course”) [2]?
Its value is 0.47.

And the Km [3]?
Its Km is 332 ± 194 µM.

And the kcat [3]?
Its kcat is 1.08 ± 0.475 s⁻¹.

And the “proportion of 20,25(OH)2D3:20,24R(OH)2D3:20,24S(OH)2D3” value [3]?
The value was 0.41.

For C=C1CC[C@H](O)C/C1=C/C=C1\CCC[C@@]2(C)[C@H]1CC[C@@H]2[C@@](C)(O)CC[C@H](O)C(C)C [20,24S(OH)2D3, 20,24S-dihydroxyvitamin D3], which “proportion … of the time course” value [2] is on record?
Its value is 0.16.

And the Km [3]?
The Km was 86.9 ± 44.3 µM.

And the kcat [3]?
Its kcat is 0.275 ± 0.0717 s⁻¹.

What about the “proportion of 20,25(OH)2D3:20,24R(OH)2D3:20,24S(OH)2D3” value [3] of the same compound?
Its value is 0.14.

Which “inhibition of colony formation compared with 20(OH)D3” value [5] does the source give for C=C1CC[C@H](O)C/C1=C/C=C1\CCC[C@@]2(C)[C@H]1CC[C@@H]2[C@@](C)(O)CCCC(C)(C)O [20,25(OH)2D3, 20,25-dihydroxyvitamin D3] here?
Its value is “more potent; also recorded: more strongly than the parent 20(OH)D3”.

What about the Vmax ([2]; formation of the named product from 20(OH)D3, as given in the text) of the same compound?
Its Vmax is 134.2 ± 36.0 pmol/min/mg protein.

And the “proportion … of the time course” value [2]?
Its value is 1.

What about the “further metabolism by CYP3A4” value ([3]; 25 μM substrate in 0.45% HP-β-CD, 60 nM CYP3A4, one hour) of the same compound?
The value was “essentially no products formed”.

What about the “proportion of 20,25(OH)2D3:20,24R(OH)2D3:20,24S(OH)2D3” value [3] of the same compound?
The value was 1.

Which “catalytic efficiency for metabolism by CYP3A4” value [1] does the source give for C=C1CC[C@H](O)C/C1=C/C=C1\CCC[C@]2(C)[C@@H]([C@H](C)CCCC(C)(C)O)CC[C@@H]12 [25(OH)D3, 25-hydroxyvitamin D3] here?
The value was 1.32 min⁻¹ µM⁻¹.

With CC[C@]1(C)C[C@@H](OC(=O)CSc2nnc(N)[nH]2)[C@]2(C)[C@H](C)CC[C@]3(CCC(=O)[C@H]32)[C@@H](C)[C@@H]1O [azamulin] as the compound, how does the “decrease of total products” value ([6]; 1 μM azamulin) read?
The value was 60.0%.

What about the “decrease of total products” value ([6]; 10 μM azamulin) of the same compound?
The value was 75.9%.

And the “inhibition of production of 20,24R(OH)2D3, 20,24S(OH)2D3 and 20,25(OH)2D3” value ([6]; human liver microsomes, abstract statement)?
Its value is “almost completely inhibited”.

Which “effect on peaks corresponding to 20,25(OH)2D3, 20,24R(OH)2D3/20,26(OH)2D3, 20,24S(OH)2D3 and H6” value [7] does the source give for NNC(=O)c1ccncc1 [isoniazid] here?
Its value is “markedly decreased”.

— article PMC4821771 (The Journal of steroid biochemistry and molecular biology, 2016)
